Key:
[1] = system: mouse pancreatic β cell line MIN6; assay: Insulin secretion from MIN6 in KRBH buffer (immunoassay); format: cell-based; conditions: for insulin secretion enhancing activity in buffer without Ca^2+ ions: 10 μM, no Ca^2+ ions, 0.1 mM EGTA, 22 mM glucose; for insulin secretion enhancing activity: 22 mM glucose KRBH, 90 minutes; for insulin secretion enhancing activity in m40i103-introduced MIN6: GPR40-specific siRNA m40i103 introduced; for insulin secretion enhancing activity in MIN6 introduced with Scramble II duplex siRNA: random siRNA control; for insulin secretion activity in BSA-containing buffer / insulin secretion enhancing activity in buffer containing Nifedipine / insulin secretion enhancing activity in PD98059-containing buffer / insulin secretion enhancing activity, glucose dependency: 10 μM fatty acid; for insulin secretion activity in BSA-containing buffer: 0.1% fatty acid-free BSA; for insulin secretion enhancing activity in buffer containing Nifedipine: Nifedipine 10 μM; for insulin secretion enhancing activity in PD98059-containing buffer: PD98059 50 μM; for insulin secretion enhancing activity, glucose dependency: high glucose level conditions of at least 11 mM (0, 5.5, 11, 22 mM tested)
Procedure: The mouse pancreatic β cell line MIN6 incubated in a flask was scraped in PBS containing 2.5 mM EDTA and plated in a 96-well plate followed by incubation for 2 days. The medium used was the same as in EXAMPLE 24, namely, 4.5 g/l of glucose-containing Dulbecco's Modified Eagle Medium (DMEM, Invitrogen, Inc.) supplemented with 15% fetal calf serum (ThermoTrace, Inc.), 5.5 μM 2-mercaptethanol (Invitrogen, Inc.), 20 mM HEPES pH 7.3, 100 U/ml penicillin and 100 μg/ml streptomycin. The cells were washed twice with modified Krebs-Ringer bicarbonate buffer (KRBH, 116 mM NaCl, 4.7 mM KCl, 1.2 mM KH2PO4, 1.2 mM MgSO4, 2.5 mM CaCl2, 25 mM NaHCO3, 24 mM HEPES, pH 7.3), followed by preincubation at 37° C. in 5% CO2 for 30 minutes. The fatty acid diluted/prepared using the aforesaid KRBH buffer added with 22 mM glucose was added to the cells after the preincubation, followed by incubation under the conditions of 37° C. in 5% CO2 for 90 minutes. After the incubation, the supernatant of the cells was recovered and stored in a frozen state. The insulin content in the supernatant was assayed using an insulin immunoassay kit commercially available (Amersham Pharmacia, Inc.).
Based on the method of EXAMPLE 25, effects of glucose level when added with fatty acids were examined. The level of glucose, which was added to KRBH upon the addition of fatty acids, was varied to 0, 5.5, 11 and 22 mM to study the effects.
The insulin secretion enhancing activity in the m40i103-introduced MIN6 cells using HVJ Envelope VECTOR KIT GenomONE based on the method of EXAMPLE 18 was examined. The insulin secretion enhancing activity by fatty acids was examined according to the method of EXAMPLE 25.
Based on the procedures of EXAMPLE 25, an essential prerequisite of Ca^2+ ions in the extracellular fluid was examined. In preincubation and incubation with a sample, Ca^2+ ions were removed and 0.1 mM EGTA, which was a reagent for chelating Ca^2+ ions, was further added, and then the insulin secretion enhancing activity by fatty acids was examined in this case.
Based on the method of EXAMPLE 25, effects of Ca^2+ channel blocker (Nifedipine) and MAP kinase inhibitor (PD98059) were examined. In preincubation and incubation with a sample, the insulin secretion enhancing activity by fatty acids was examined when Nifedipine (10 μM) or PD98059 (50 μM) was added.
It is known that fatty acids have the property of binding to albumin. Based on the method of EXAMPLE 25, effects were examined when bovine serum albumin (BSA) was present. In preincubation and incubation with a sample, the insulin secretion activity by fatty acids was examined when 0.1% BSA was added to the buffer.

Rat GPR40 = molecular target: T1, Rat GPR40 (Rattus norvegicus, UniProt Q8K3T4); assay: EC50 by FLIPR calcium assay in CHO cells stably expressing rat GPR40; format: cell-based; conditions: intracellular calcium, FLIPR, stable CHO line; read-out: EC50 Rat GPR40
T1 construct: expressed in transfected cells
T1 sequence (Q8K3T4 whole entry): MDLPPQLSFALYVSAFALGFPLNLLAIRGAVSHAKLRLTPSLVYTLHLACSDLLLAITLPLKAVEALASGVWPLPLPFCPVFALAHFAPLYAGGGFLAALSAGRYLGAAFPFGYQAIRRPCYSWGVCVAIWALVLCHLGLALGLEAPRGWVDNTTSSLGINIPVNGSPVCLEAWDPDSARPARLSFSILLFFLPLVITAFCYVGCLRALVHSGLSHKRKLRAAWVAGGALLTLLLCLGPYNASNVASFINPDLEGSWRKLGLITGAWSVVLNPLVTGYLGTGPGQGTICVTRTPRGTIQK

MIN6 cells = assay: FLIPR intracellular calcium assay using MIN6; format: cell-based, mouse; conditions: 10 μM fatty acid
Procedure: Mouse pancreatic β cell line MIN6 incubated in a flask was scraped using PBS containing 2.5 mM EDTA and diluted so as to contain 3×10^5 cells/1 mL of the medium. The dilution was dispensed in a Black welled 96-well plate (Coster) in 100 μL/well, followed by incubation in a CO2 incubator for 2 days. The medium used was 4.5 g/l of glucose-containing Dulbecco's Modified Eagle Medium (DMEM, Invitrogen, Inc.) supplemented with 15% fetal calf serum (ThermoTrace, Inc.), 5.5 μM 2-mercaptethanol (Invitrogen, Inc.), 20 mM HEPES pH 7.3, 100 U/ml penicillin and 100 μg/ml streptomycin. To the thus prepared MIN6 cells, various fatty acids (10 μM) were added and the changes in intracellular calcium level in this case were measured using FLIPR (Molecular Device). The changes in the intracellular calcium ion level on FLIPR were assayed in accordance with the procedures described in EXAMPLE 24.

CCCCC/C=C\C/C=C\C/C=C\CCCCC(=O)O [γ-Linolenic acid (C18:3), γ-Linolenic acid] was tested, and the “insulin secretion enhancing activity in buffer without Ca^2+ ions” value [1] was “not observed”, the “insulin secretion enhancing activity” value [1] was “significantly noted” and the “insulin secretion enhancing activity in m40i103-introduced MIN6” value [1] was “no longer noted”. For the same compound, the “insulin secretion enhancing activity in MIN6 introduced with Scramble II duplex siRNA” value [1] was “retained”, the EC50 (Rat GPR40) was 5.4 ± 1.1 µM and the “intracellular Ca^2+ level in MIN6” value (MIN6 cells) was “increased”.
In the case of CCCCCCCC/C=C\CCCCCCCC(=O)O [Oleic acid (C18:1), Oleic acid], the “insulin secretion activity in BSA-containing buffer” value [1] is reported as “almost suppressed”, the “insulin secretion enhancing activity in buffer containing Nifedipine” value [1] is reported as “not appreciated” and the “insulin secretion enhancing activity in PD98059-containing buffer” value [1] is reported as “same results as in ordinary buffer”. For the same compound, the “insulin secretion enhancing activity, glucose dependency” value [1] was “remarkable”, the “insulin secretion enhancing activity in buffer without Ca^2+ ions” value [1] was “not observed” and the “insulin secretion enhancing activity” value [1] was “significantly noted”. The EC50 (Rat GPR40) was 3.4 ± 0.4 µM and the “intracellular Ca^2+ level in MIN6” value (MIN6 cells) was “increased”.
With CC/C=C\C/C=C\C/C=C\C/C=C\C/C=C\C/C=C\CCC(=O)O [Docosahexaenoic acid (C22:6), 4Z,7Z,10Z,13Z,16Z,19Z-docosahexaenoic acid] the “insulin secretion enhancing activity” value [1] was “significantly noted”, the EC50 (Rat GPR40) was 13 ± 1.7 µM and the “intracellular Ca^2+ level in MIN6” value (MIN6 cells) was “increased”.
With CCCCC/C=C\C/C=C\CCCCCCCC(=O)O [Linoleic acid (C18:2), Linoleic acid] the “insulin secretion activity in BSA-containing buffer” value [1] was “almost suppressed”, the “insulin secretion enhancing activity in buffer containing Nifedipine” value [1] was “not appreciated” and the “insulin secretion enhancing activity in PD98059-containing buffer” value [1] was “same results as in ordinary buffer”. For the same compound, the “insulin secretion enhancing activity, glucose dependency” value [1] was “remarkable”, the “insulin secretion enhancing activity in buffer without Ca^2+ ions” value [1] was “not observed” and the “insulin secretion enhancing activity” value [1] was “significantly noted”. The “insulin secretion enhancing activity in m40i103-introduced MIN6” value [1] was “no longer noted”, the “insulin secretion enhancing activity in MIN6 introduced with Scramble II duplex siRNA” value [1] was “retained” and the EC50 (Rat GPR40) was 4.1 ± 0.5 µM. The “intracellular Ca^2+ level in MIN6” value (MIN6 cells) was “increased”.
With CCCCC/C=C\C/C=C\C/C=C\C/C=C\CCCC(=O)O [Arachidonic acid (C20:4), Arachidonic acid] the “insulin secretion enhancing activity” value [1] was “significantly noted”, the EC50 (Rat GPR40) was 8 ± 0.6 µM and the “intracellular Ca^2+ level in MIN6” value (MIN6 cells) was “increased”.

From patent US7214495B2, “Screening method” (Takeda Pharmaceutical Company Limited, priority 2002, dated 2007)
